{"source": "patent US20080317863A1", "about": "“Pharmaceutical Compositions Useful in the Transmucosal Administration of Drugs” (priority 2005, published 2008)", "key": {"[1]": {"test": "Particle size by laser diffraction analysis", "format": "physicochemical", "conditions": "median by weight, 10% and 90% undersize limits in parentheses", "experimental": "(§1) Particle sizes are shown as median values by weight as measured by laser diffraction analysis (Sympatec Helos […], Germany). […] Surface areas were measured by steady state […] (Johansson et al, Int. […] The results are shown as the mean value from three measurements. The standard deviation is given in parentheses."}, "[2]": {"test": "Surface area by permeametry", "format": "physicochemical", "conditions": "permeametry with Blaine apparatus; mean of three, SD in parentheses", "experimental": "as §1"}}}
{"smiles": "O=C([O-])c1ccccc1O.[Na+]", "note": "[Sodium salicylate, sodium salicylate]", "values": [{"measurement": "Particle Size", "setting": "[1]", "value": "3.17 (0.8, 10.8) μm"}, {"measurement": "Surface Area", "setting": "[2]", "value": "1.77 (0.13) m^2/g"}]}
